# Data from PubChem BioAssay (NCI).
#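 Where inhibition never reached the appropriate level, the endpoint shown equals the highest concentration tested. Otherwise, values were interpolated linearly from a five-concentration, 48-hour dose response in 96-well plates. GI50 marks 50% less growth. TGI: total growth inhibition.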
# Key:
# Test in all cases: DTP human tumour cell line panel, 48 h
# [1] = tested on: MDA-MB-435
# [2] = tested on: SK-OV-3 ovarian
# [3] = tested on: OVCAR-5 ovarian
# [4] = tested on: CCRF-CEM leukemia
# [5] = tested on: K-562 leukemia
# [6] = tested on: DU-145 prostate
# [7] = tested on: M14 melanoma
# [8] = tested on: HCT-116 colon
# [9] = tested on: CAKI-1 renal
# [10] = tested on: SW-620 colon
# [11] = tested on: HL-60(TB) leukemia
# [12] = tested on: SN12C renal
# [13] = tested on: HT29 colon
# [14] = tested on: SK-MEL-5 melanoma
# [15] = tested on: A498 renal
# [16] = tested on: HCC-2998 colon
# [17] = tested on: HS 578T breast
# [18] = tested on: ACHN renal
# [19] = tested on: NCI-H226 lung
# [20] = tested on: MALME-3M melanoma
# [21] = tested on: BT-549 breast
# [22] = tested on: 786-0 renal
# [23] = tested on: SF-539 CNS
# [24] = tested on: T-47D breast
# [25] = tested on: SNB-19 CNS
# [26] = tested on: MDA-MB-231 breast
# [27] = tested on: SNB-75 CNS
# [28] = tested on: UACC-257 melanoma
# [29] = tested on: A549 NSCLC
# [30] = tested on: SK-MEL-2 melanoma
# [31] = tested on: LOX IMVI melanoma
# [32] = tested on: NCI-H460 lung
# [33] = tested on: PC-3 prostate
# [34] = tested on: RXF 393 renal
# [35] = tested on: U251 CNS
# [36] = tested on: SF-295 CNS
# [37] = tested on: UACC-62 melanoma
# [38] = tested on: MOLT-4 leukemia
# [39] = tested on: HOP-62 NSCLC
# [40] = tested on: SF-268 CNS
# [41] = tested on: RPMI-8226 leukemia
# [42] = tested on: KM12 colon
# [43] = tested on: TK-10 renal
# [44] = tested on: HOP-92 NSCLC
# [45] = tested on: UO-31 renal
# [46] = tested on: NCI/ADR-RES ovarian
# [47] = tested on: MCF7 breast
# [48] = tested on: OVCAR-8 ovarian
# [49] = tested on: OVCAR-3 ovarian
# [50] = tested on: COLO 205 colon
# [51] = tested on: HCT-15 colon
# [52] = tested on: NCI-H522 lung
# [53] = tested on: NCI-H23 lung
# [54] = tested on: SK-MEL-28 melanoma
# [55] = tested on: SR leukemia
# [56] = tested on: OVCAR-4 ovarian
# [57] = tested on: IGROV1 ovarian
smiles,measurement,setting,value
CS(=O)(=O)Nc1ccc(Nc2c3ccccc3nc3cc([N+](=O)[O-])ccc23)cc1,GI50,[1],3320 nM
same,TGI,[1],9060 nM
same,GI50,[2],3500 nM
same,TGI,[2],15100 nM
same,GI50,[3],7940 nM
same,TGI,[3],23100 nM
same,GI50,[4],352 nM
same,TGI,[4],2790 nM
same,GI50,[5],1310 nM
same,TGI,[5],6960 nM
same,GI50,[6],296 nM
same,TGI,[6],6500 nM
same,GI50,[7],1420 nM
same,TGI,[7],5810 nM
same,GI50,[8],1100 nM
same,TGI,[8],6160 nM
same,GI50,[9],2010 nM
same,TGI,[9],7430 nM
same,GI50,[10],1090 nM
same,TGI,[10],6000 nM
same,GI50,[11],1690 nM
same,TGI,[11],5880 nM
same,GI50,[12],807 nM
same,TGI,[12],8430 nM
same,GI50,[13],2140 nM
same,TGI,[13],6130 nM
same,GI50,[14],1100 nM
same,TGI,[14],4370 nM
same,GI50,[15],1280 nM
same,TGI,[15],12500 nM
same,GI50,[16],1620 nM
same,TGI,[16],4240 nM
same,GI50,[17],2420 nM
same,TGI,[17],13400 nM
same,GI50,[18],1420 nM
same,TGI,[18],6740 nM
same,GI50,[19],1260 nM
same,TGI,[19],6950 nM
same,GI50,[20],1440 nM
same,TGI,[20],4080 nM
same,GI50,[21],2290 nM
same,TGI,[21],9320 nM
same,GI50,[22],1390 nM
same,TGI,[22],10600 nM
same,GI50,[23],2230 nM
same,TGI,[23],13000 nM
same,GI50,[24],107 nM
same,TGI,[24],2230 nM
same,GI50,[25],1610 nM
same,TGI,[25],14900 nM
same,GI50,[26],2100 nM
same,TGI,[26],6100 nM
same,GI50,[27],1720 nM
same,TGI,[27],11800 nM
same,GI50,[28],1820 nM
same,TGI,[28],6440 nM
same,GI50,[29],317 nM
same,TGI,[29],12000 nM
same,GI50,[30],3460 nM
same,TGI,[30],8850 nM
same,GI50,[31],922 nM
same,TGI,[31],2780 nM
same,GI50,[32],41 nM
same,TGI,[32],2750 nM
same,GI50,[33],1590 nM
same,TGI,[33],11800 nM
same,GI50,[34],1890 nM
same,TGI,[34],4860 nM
same,GI50,[35],911 nM
same,TGI,[35],11300 nM
same,GI50,[36],1420 nM
same,TGI,[36],7770 nM
same,GI50,[37],1320 nM
same,TGI,[37],6310 nM
same,GI50,[38],235 nM
same,TGI,[38],1190 nM
same,GI50,[39],399 nM
same,TGI,[39],3790 nM
same,GI50,[40],615 nM
same,TGI,[40],7030 nM
same,GI50,[41],737 nM
same,TGI,[41],4310 nM
same,GI50,[42],854 nM
same,TGI,[42],3760 nM
same,GI50,[43],3380 nM
same,TGI,[43],11900 nM
same,GI50,[44],590 nM
same,TGI,[44],3740 nM
same,GI50,[45],2390 nM
same,TGI,[45],13600 nM
same,GI50,[46],10000 nM
same,TGI,[46],26500 nM
same,GI50,[47],51.1 nM
same,TGI,[47],2720 nM
same,GI50,[48],1950 nM
same,TGI,[48],9530 nM
same,GI50,[49],2050 nM
same,TGI,[49],5870 nM
same,GI50,[50],1430 nM
same,TGI,[50],6060 nM
same,GI50,[51],1380 nM
same,TGI,[51],4010 nM
same,GI50,[52],1270 nM
same,TGI,[52],2800 nM
same,GI50,[53],1690 nM
same,TGI,[53],5470 nM
same,GI50,[54],2450 nM
same,TGI,[54],7760 nM
same,GI50,[55],83.7 nM
same,TGI,[55],3160 nM
same,GI50,[56],2900 nM
same,TGI,[56],10400 nM
same,GI50,[57],1630 nM
same,TGI,[57],5170 nM
